Columns and labels:
[1] = test system: ROS production in LPS-activated RAW 264.7 macrophages; test: ROS production in LPS-activated RAW 264.7 macrophages (DCFH-DA); type: cell-based; conditions: LPS 1 µg/mL activated RAW 264.7
Method: HCA7 colorectal cancer cell line was obtained from Sigma. […] Louis, MO) containing 10% heat-inactivated foetal bovine serum (HI-FBS) (Gibco, USA), 100 μg/mL streptomycin (Invitrogen, USA), and […] penicillin (Invitrogen, USA)[40]. HCA7 and RAW 264.7 cells were cultured in Dulbecco's minimal essential media (DMEM, Invitrogen) containing 10% HI-FBS, sodium pyruvate (1 mM), penicillin ([…]), and streptomycin (100 mg/m)[41]^,[42]. […] The cells were cultured, incubated with the different test compounds, and activated with LPS (1 µg/mL) as detailed above. […] IC50 values were calculated from the dose–response curves.

[2] = test system: NO production in LPS-activated RAW 264.7 macrophages; test: NO production in LPS-activated RAW 264.7 macrophages (DAF-FM); type: cell-based; conditions: Mus musculus, RAW264.7; LPS 1 µg/mL activated RAW 264.7
Method: HCA7 colorectal cancer cell line was obtained from Sigma. […] Louis, MO) containing 10% heat-inactivated foetal bovine serum (HI-FBS) (Gibco, USA), 100 μg/mL streptomycin (Invitrogen, USA), and […] penicillin (Invitrogen, USA)[40]. HCA7 and RAW 264.7 cells were cultured in Dulbecco's minimal essential media (DMEM, Invitrogen) containing 10% HI-FBS, sodium pyruvate (1 mM), penicillin ([…]), and streptomycin (100 mg/m)[41]^,[42]. […] Molecular Probes, USA). Briefly, RAW 264.7 cells were cultured in black 96-well plates (200,000 cells/mL, 100 µl/well) for 24 h. […] The fluorescence intensity, which is directly proportional to NO levels, was quantified, as detailed in our previous study. IC50 values were calculated from the dose–response curves.

Structure (SMILES)	IC50 ([1]; Mus musculus, RAW264.7) [µM]	IC50 [2] [µM]	IC50 [1] [µM]
NNC(=O)CSc1nc2ccccc2c(=O)n1NC(=O)Cc1ccccc1 [13b, N-(2-((2-hydrazinyl-2-oxoethyl)thio)-4-oxoquinazolin-3(4H)-yl)-2-phenylacetamide]	24.4 ± 1.43	9.76 ± 2.14	
CC(C)Cc1ccc(C(C)C(=O)NN2C(=O)c3ccccc3N(C)C2c2ccc([N+](=O)[O-])cc2)cc1 (centres unmarked) [7c, 2-(4-Isobutylphenyl)-N-(1-methyl-2-(4-nitrophenyl)-4-oxo-1,4-dihydroquinazolin-3(2H)-yl) propenamide]	9.22	23.4 ± 1.29	9.23 ± 1.76

— article PMC8330735 (Journal of Enzyme Inhibition and Medicinal Chemistry, 2021)
